pEC50: −log10 of the molar value. Starred links: 1 amine or outer side, 2 acyl side, 3 side chain; linkers in the order of their positions; H or OH if unused. Positions of bridges follow the written chain, without caps; N, C: chain ends. Non-standard residues stand in square brackets, D forms with d. Residues, ends and D or L forms follow the SMILES beside them. ξ: configuration not given here. mXylylene = c1cc(C[*:1])cc(C[*:2])c1; ξhCys = NC(CCS)C(=O)O

Test [1] deals with Human immunodeficiency virus 1. In words: Antiviral activity against T20 resistant HIV1 NL4-3 harboring with V38E/N42S mutant infected in human MT2 cells or CEMx174 5.25 M7 cells assessed as reduction in p24 Gag protein production at 14000:1 hCS6ERE to compound ratio measured at 4 days post-infection by ELISA. The format is functional, organism-based. A general note: ELISA stands for enzyme-linked immunosorbent assay.

Test [2] deals with Human immunodeficiency virus 1. In words: Antiviral activity against R5 tropic HIV-1 subtype-B Bal infected in human MT2 cells or CEMx174 5.25 M7 cells assessed as reduction in p24 Gag protein production at 3:1 ratio of hCS6ERE to compound measured at 4 days post-infection by ELISA. Format: functional, cell-based, HIV-1 group M. The settings on record: Human immunodeficiency virus 1, Bal, 96 h.

The target in test [3] is Envelope glycoprotein gp160 (Human immunodeficiency virus 1) (UniProt Q6QLK5). Description: Ratio of EC50 for inhibition of HIV1 gp41-induced cell-cell fusion between viral envelope expressing human HL2/3 cells to CD4/CCR5 receptor expressing TZM-bl cells in absence of HP23 to EC50 for inhibition of HIV1 gp41-induced cell-cell fusion between viral envelope expressing human HL2/3 cells to CD4/CCR5 receptor expressing TZM-bl cells at 1:1 ratio of hCS6ERE to compound.
Sequence of Envelope glycoprotein gp160 (Human immunodeficiency virus 1) (Q6QLK5 1-814): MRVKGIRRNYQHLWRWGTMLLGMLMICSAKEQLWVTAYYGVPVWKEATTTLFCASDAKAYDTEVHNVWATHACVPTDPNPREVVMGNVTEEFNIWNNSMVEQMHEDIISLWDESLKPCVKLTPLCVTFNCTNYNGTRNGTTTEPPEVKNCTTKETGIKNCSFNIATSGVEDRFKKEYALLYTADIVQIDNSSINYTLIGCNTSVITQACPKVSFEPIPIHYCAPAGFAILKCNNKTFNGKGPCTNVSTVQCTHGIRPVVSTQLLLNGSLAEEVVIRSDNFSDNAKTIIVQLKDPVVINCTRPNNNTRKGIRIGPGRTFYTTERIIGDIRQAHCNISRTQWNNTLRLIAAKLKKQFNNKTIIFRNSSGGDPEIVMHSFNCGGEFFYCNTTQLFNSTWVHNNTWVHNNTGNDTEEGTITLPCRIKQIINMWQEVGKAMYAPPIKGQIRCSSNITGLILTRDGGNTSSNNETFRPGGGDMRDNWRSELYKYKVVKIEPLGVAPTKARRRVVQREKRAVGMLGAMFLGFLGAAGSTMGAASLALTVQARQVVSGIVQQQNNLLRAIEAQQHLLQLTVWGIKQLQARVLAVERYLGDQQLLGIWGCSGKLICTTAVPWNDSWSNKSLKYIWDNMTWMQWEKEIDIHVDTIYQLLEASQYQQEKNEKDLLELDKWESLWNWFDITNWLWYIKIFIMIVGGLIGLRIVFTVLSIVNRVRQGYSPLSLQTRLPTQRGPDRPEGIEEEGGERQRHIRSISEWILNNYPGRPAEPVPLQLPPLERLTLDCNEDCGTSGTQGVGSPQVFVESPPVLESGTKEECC

Test [4] has as its system Human immunodeficiency virus 1. Description: Ratio of EC50 for antiviral activity against T2635 resistant HIV1 LAI harboring Q66R mutant infected in human MT2 cells or CEMx174 5.25 M7 cells in absence of hCS6ERE to antiviral activity against T2635 resistant HIV1 LAI harboring Q66R mutant infected in human MT2 cells or CEMx174 5.25 M7 cells at 50:1 ratio of hCS6ERE to compound. Format: functional, M:B_Lai.

Test [5] concerns Human immunodeficiency virus 1. Description: Antiviral activity against T2635 resistant HIV1 LAI harboring Q66R mutant infected in human MT2 cells or CEMx174 5.25 M7 cells assessed as reduction in p24 Gag protein production at 12.5:1 ratio of compound to HP23 measured at 4 days post infection by ELISA. The format is functional, organism-based, M:B_Lai.
In test [6] the test system is Human immunodeficiency virus 1. In words: Ratio of EC50 for antiviral activity against T20 resistant HIV1 NL4-3 harboring with V38E/N42S mutant infected in human MT2 cells or CEMx174 5.25 M7 cells in absence of HP23 to EC50 for antiviral activity against T20 resistant HIV1 NL4-3 harboring with V38E/N42S mutant infected in human MT2 cells or CEMx174 5.25 M7 cells at 7000:1 compound to HP23 ratio. The format is functional.

For test [7], the system named is Human immunodeficiency virus 1. Description: Antiviral activity against T20 resistant HIV1 NL4-3 harboring with V38E/N42S mutant infected in human MT2 cells or CEMx174 5.25 M7 cells assessed as reduction in p24 Gag protein production at 3500:1 compound to HP23 ratio measured at 4 days post-infection by ELISA. Format: functional, organism-based.
The test system of test [8] is Human immunodeficiency virus 1. Description: Ratio of EC50 for antiviral activity against T20 resistant HIV1 NL4-3 harboring with V38E/N42T mutant infected in human MT2 cells or CEMx174 5.25 M7 cells in absence of HP23 to EC50 for Antiviral activity against T20 resistant HIV1 NL4-3 harboring with V38E/N42T mutant infected in human MT2 cells or CEMx174 5.25 M7 cells at 300:1 compound to HP23 ratio. Format: functional.

Test [9] relates to Human immunodeficiency virus 1. In words: Ratio of EC50 for antiviral activity against R5 tropic HIV-1 subtype-B Bal infected in human MT2 cells or CEMx174 5.25 M7 cells in absence of HP23 to EC50 for antiviral activity against R5 tropic HIV-1 subtype-B Bal infected in human MT2 cells or CEMx174 5.25 M7 cells at 24:1 compound to HP23 ratio. Format: functional, HIV-1 group M.
The subject of test [10] is Human immunodeficiency virus 1. In words: Synergistic antiviral activity against T2635 resistant HIV1 LAI harboring Q66R mutant infected in human MT2 cells or CEMx174 5.25 M7 cells assessed as reduction in p24 Gag protein production by measuring combination index at 50:1 compound ratio measured at 4 days post infection by ELISA. Format: functional, M:B_Lai.
Test [11] has as its system Human immunodeficiency virus 1. Description: Synergistic antiviral activity against R5 tropic HIV-1 subtype-B Bal infected in human MT2 cells or CEMx174 5.25 M7 cells assessed as reduction in p24 Gag protein production by measuring combination index at 6:1 ratio of hCS6ERE to compound measured at 4 days post-infection by ELISA. Format: functional, HIV-1 group M.
The subject of test [12] is Human immunodeficiency virus 1. Description: Ratio of EC50 for antiviral activity against T2635 resistant HIV1 LAI harboring Q66R mutant infected in human MT2 cells or CEMx174 5.25 M7 cells in absence of HP23 to antiviral activity against T2635 resistant HIV1 LAI harboring Q66R mutant infected in human MT2 cells or CEMx174 5.25 M7 cells at 25:1 ratio of compound to HP23. The format is functional, M:B_Lai.

The test system of test [13] is Human immunodeficiency virus 1. Description: Ratio of EC50 for antiviral activity against X4 tropic HIV-1 subtype-B 3B infected in human MT2 cells or CEMx174 5.25 M7 cells in absence of HP23 to EC50 for antiviral activity against X4 tropic HIV-1 subtype-B 3B infected in human MT2 cells or CEMx174 5.25 M7 cells at 12:1 compound to HP23 ratio. Format: functional, HIV-1 group M.

In test [14] the target is Envelope glycoprotein gp160 (Human immunodeficiency virus 1) (UniProt Q6QLK5). In words: Ratio of EC50 for inhibition of HIV1 gp41-induced cell-cell fusion between viral envelope expressing human HL2/3 cells to CD4/CCR5 receptor expressing TZM-bl cells in absence of HP23 to EC50 for inhibition of HIV1 gp41-induced cell-cell fusion between viral envelope expressing human HL2/3 cells to CD4/CCR5 receptor expressing TZM-bl cells at 4:1 compound to HP23 ratio.

For H-EMTWEEWEKKIEEYTKKIEEILK-OH, the values for the negative-log EC50 (pEC50) in test [1] and in test [2] were 9.70 and 8.85, respectively. For the same molecule, the values for the Ratio EC50 in test [3] and in test [4] were 1 and 9.6, respectively.
On to `CC[C@H](C)[C@H](NC(C)=O)C(=O)N[C@@H](CCC(=O)O)C(=O)N[C@@H](CCC(=O)O)C(=O)N[C@@H](CC(C)C)C(=O)N[C@H](C(=O)NC1CCSCc2cccc(c2)CSCCC(C(=O)N[C@@H](CCC(N)=O)C(=O)N[C@@H](CCC(N)=O)C(=O)N[C@@H](CCCNC(=N)N)C(=O)N[C@@H](CCCCN)C(=O)N[C@@H](CC(N)=O)C(=O)N[C@@H](CCC(=O)O)C(=O)N[C@@H](CCC(=O)O)C(=O)N[C@@H](C)C(=O)N[C@@H](CC(C)C)C(=O)N[C@@H](CCCNC(=N)N)C(=O)N[C@@H](CCC(=O)O)C(=O)N[C@@H](CC(C)C)C(N)=O)NC(=O)[C@H](CCC(N)=O)NC(=O)[C@H](C)NC(=O)[C@H](C)NC1=O)[C@@H](C)CC` (some centres undefined) (Ac-IEELI[ξhCys]AAQ[ξhCys]QQRKNEEALREL-NH2; linker 6-10 via mXylylene), for which the results for the pEC50 in test [5] and in [7] were 7.64 and 5.69, respectively. Besides, the “Ratio EC50” value in test [6] is 2.7; in test [8] it was 2.3; in test [9], 2.6; in test [12] it was 2.2; in test [13], 2.4; in test [14], 2.9. Further, the CI in [10] is recorded as 0.4; in test [11], 0.8.
